# Experimental data as given in article PMC8375242 (International Journal of Nanomedicine, 2021).
# Where two headings read alike, the source gives them in different places.
# How the values were obtained:
# [1] = tested on: human normal liver cell line LO-2; experiment: MTT cytotoxicity assay, normal cell LO-2; format: cell-based; conditions: for IC50: read-out: IC50 LO-2 (48 h)
# [2] = tested on: murine colon cancer (CT-26); experiment: MTT cytotoxicity assay, CT-26; format: cell-based; conditions: read-out: IC50 CT-26 (48 h)
# [3] = tested on: cisplatin-resistant cell line A549R; experiment: MTT cytotoxicity assay, A549R; format: cell-based, human; conditions: for IC50: read-out: IC50 A549R (48 h); for RF (resistant factor): RF=IC50(A549R)/IC50(A549)
# human lung cancer (A549) = experiment: MTT cytotoxicity assay, A549; format: cell-based; conditions: read-out: IC50 A549 (48 h)
# rhCOX-2 = biological target: T1, rhCOX-2 (Homo sapiens, UniProt P35354); experiment: biochemical; conditions: read-out: COX-2 inhibition
# T1 sequence (P35354 18-604): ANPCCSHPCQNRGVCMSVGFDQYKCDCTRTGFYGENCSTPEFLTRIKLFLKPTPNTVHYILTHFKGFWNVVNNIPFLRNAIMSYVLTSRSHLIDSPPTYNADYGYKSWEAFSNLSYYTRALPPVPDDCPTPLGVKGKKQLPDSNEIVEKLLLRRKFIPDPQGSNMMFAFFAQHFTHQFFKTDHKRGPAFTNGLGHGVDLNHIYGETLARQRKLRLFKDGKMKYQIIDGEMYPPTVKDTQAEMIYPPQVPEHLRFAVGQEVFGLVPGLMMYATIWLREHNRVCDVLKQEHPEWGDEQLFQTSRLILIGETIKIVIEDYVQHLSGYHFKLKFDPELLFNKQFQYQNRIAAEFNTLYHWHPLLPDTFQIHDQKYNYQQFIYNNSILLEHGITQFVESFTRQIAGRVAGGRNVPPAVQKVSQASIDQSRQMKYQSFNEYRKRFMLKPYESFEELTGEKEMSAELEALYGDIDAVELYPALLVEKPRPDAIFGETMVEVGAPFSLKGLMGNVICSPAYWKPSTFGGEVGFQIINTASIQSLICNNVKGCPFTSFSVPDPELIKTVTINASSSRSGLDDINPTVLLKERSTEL
# Toxicity in vivo = experiment: Toxicity in vivo; design: species or system BALB/c mice; conditions: 4 mg Pt/kg (1-NPs, oxaliplatin i.v.; 1 i.p.)
# iNOS = experiment: Immunohistochemical detection of iNOS in tumor tissues; format: in vivo, BALB/c mice; conditions: 4 mg Pt/kg (1-NPs, oxaliplatin i.v.), immunohistochemistry
# [4] = tested on: human ovarian cancer (SKOV-3); experiment: MTT cytotoxicity assay, SKOV-3; format: cell-based
# CT-26 homograft tumors = experiment: In vivo antitumor assay, CT-26 homograft; design: species or system BALB/c mice; conditions: days 6, 9, 12, 14, day 15, saline 1586
# MMP-9 = experiment: Immunohistochemical detection of MMP-9 in tumor tissues; format: in vivo, BALB/c mice; conditions: 4 mg Pt/kg (1-NPs, oxaliplatin i.v.; 1 i.p.), immunohistochemistry; saline 16.3±1.9
# [5] = Serum AST, ALT, BUN and CRE detection; format: in vivo, BALB/c mice; conditions: 4 mg Pt/kg (1-NPs, oxaliplatin i.v.; 1 i.p.), vs saline
# [6] = MTT, 48 h incubation, normal liver cell
# [7] = read-out: IC50 SKOV-3 (48 h), 48 h incubation
# [8] = read-out: IC50 SKOV-3 (72 h), 72 h incubation
structure (smiles),measurement,setting,value
COc1ccc2cc([C@H](C)C(=O)O)ccc2c1 [naproxen],IC50,"[1]; Homo sapiens, 48 h",> 100 µM
same,IC50,"[2]; Mus musculus, CT26, 48 h",> 100 µM
same,IC50,"[3]; Homo sapiens, 48 h",> 100 µM
same,IC50,"human lung cancer (A549); Homo sapiens, A549, 48 h",> 100 µM
same,inhibition at 40 µM,rhCOX-2,74%
O=C1[O][Pt]2([NH][C@@H]3CCCC[C@H]3[NH]2)[O]C1=O [oxaliplatin],SI (selectivity index),[1]; SI = IC50(LO-2)/Average IC50,1.0
same,IC50,[1]; [6],4.8 ± 0.7 µM
same,signs of toxicity during treatment,Toxicity in vivo,anorexia and dyskinesia
same,"H&E histology of heart, liver, spleen, lung and kidney",Toxicity in vivo; vs saline,no appreciable histological differences
same,spleen weight index,Toxicity in vivo; vs saline,remarkable suppressions of spleen
same,expression of iNOS in tumor tissues,iNOS,significantly upregulates iNOS
same,IC50,[4]; [7],5.9 ± 1.3 µM
same,IC50,[4]; [8],7.5 ± 1.8 µM
same,tumor volume,"CT-26 homograft tumors; 4 mg Pt/kg (1-NPs, oxaliplatin i.v.; 1 i.p.)",477 mm^3
same,IC50,"[2]; MTT, 48 h incubation",4.1 ± 0.7 µM
same,"expression of MMP-9, mean optical density",MMP-9,6.5±0.5%
same,RF (resistant factor),[3],0.4
same,IC50,"[3]; MTT, 48 h incubation",2.4 ± 0.6 µM
same,ALT and AST levels in serum,[5],significant enhanced ALT and AST levels
same,IC50,"human lung cancer (A549); MTT, 48 h incubation",6.7 ± 1.8 µM
N.N.[Cl][Pt][Cl] [cisplatin],IC50,[1]; [6],3.4 ± 1.2 µM
same,IC50,[4]; [7],1.9 ± 0.4 µM
same,IC50,[4]; [8],1.2 ± 0.3 µM
same,tumor volume,"CT-26 homograft tumors; 2 mg Pt/kg (2-NPs, cisplatin i.v.; 2 i.p.)",399 mm^3
same,IC50,"[2]; MTT, 48 h incubation",1.2 ± 0.3 µM
same,RF (resistant factor),[3],2.57
same,RF (resistant factor),[3]; listed as CDDP,2.6
same,IC50,"[3]; MTT, 48 h incubation",7.1 ± 1.3 µM
same,IC50,"human lung cancer (A549); MTT, 48 h incubation",2.8 ± 0.6 µM
